The test system of experiment [1] is primary human macrophages. As to conditions: cited from earlier work.
In experiment [2] the target is T1, STAT3 (mouse, UniProt P42227 2-770).
T1 construct: Endogenous transcription factor, probed by western blot (anti-STAT3, Cell Signaling) in the IRF4 immunoprecipitate
Kind of experiment: co-immunoprecipitation of endogenous IRF4 from Th17-polarized cell lysate, western blot for STAT3. The protocol:
Naïve CD4 positive T cells were sorted and cultured under Th17 polarizing conditions for 48 h prior to assay. Whole cells lysates were prepared with high salt buffer (10 mM Tris, 420 mM NaCl, 0.5% NP40, 1 mM EDTA), sonicated, spun to remove insoluble particles, and diluted to a final concentration of 150 mM NaCl for co-immunoprecipitation. Endogenous IRF4 was immunoprecipitated using anti-IRF4 antibody in the presence or absence of 50 ug/ml ethidium bromide.

T1 sequence (P42227 2-770 limits assumed): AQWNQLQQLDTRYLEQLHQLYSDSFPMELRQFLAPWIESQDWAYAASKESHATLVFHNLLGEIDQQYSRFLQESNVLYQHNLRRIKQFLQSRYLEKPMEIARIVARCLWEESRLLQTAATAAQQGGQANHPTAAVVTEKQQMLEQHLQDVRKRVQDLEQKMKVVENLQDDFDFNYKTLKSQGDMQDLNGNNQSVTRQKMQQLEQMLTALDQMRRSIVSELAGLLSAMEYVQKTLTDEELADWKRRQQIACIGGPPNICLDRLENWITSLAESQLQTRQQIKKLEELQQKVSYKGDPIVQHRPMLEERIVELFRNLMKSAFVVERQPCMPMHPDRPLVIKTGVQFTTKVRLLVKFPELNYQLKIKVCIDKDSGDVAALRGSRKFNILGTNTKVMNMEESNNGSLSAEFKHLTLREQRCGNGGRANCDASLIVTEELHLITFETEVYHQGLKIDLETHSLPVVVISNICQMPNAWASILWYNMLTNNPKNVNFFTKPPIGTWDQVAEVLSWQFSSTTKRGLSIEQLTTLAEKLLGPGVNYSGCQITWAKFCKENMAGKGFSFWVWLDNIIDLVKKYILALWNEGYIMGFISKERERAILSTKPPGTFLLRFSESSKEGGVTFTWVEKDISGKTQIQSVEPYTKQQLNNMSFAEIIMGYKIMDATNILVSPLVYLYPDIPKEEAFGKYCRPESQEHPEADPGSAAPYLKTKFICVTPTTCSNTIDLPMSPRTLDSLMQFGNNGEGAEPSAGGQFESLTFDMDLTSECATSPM

With `CCOC(=O)CCNc1cc(N2CCc3ccccc3CC2)nc(-c2ccccn2)n1` [GSK-J4], in experiment [1], the concentration for half-maximal inhibition (IC50) (in general, the point on the concentration scale where inhibition reaches its midpoint) is 9 µM.

B1: IRF4 (other, mouse, UniProt Q64287 1-450, looked up)
chain: MNLETGSRGSEFGMSAVSCGNGKLRQWLIDQIDSGKYPGLVWENEEKSVFRIPWKHAGKQDYNREEDAALFKAWALFKGKFREGIDKPDPPTWKTRLRCALNKSNDFEELVERSQLDISDPYKVYRIVPEGAKKGAKQLTLDDTQMAMGHPYPMTAPYGSLPAQQVHNYMMPPHDRSWRDYAPDQSHPEIPYQCPVTFGPRGHHWQGPSCENGCQVTGTFYACAPPESQAPGIPIEPSIRSAEALALSDCRLHICLYYRDILVKELTTTSPEGCRISHGHTYDVSNLDQVLFPYPDDNGQRKNIEKLLSHLERGLVLWMAPDGLYAKRLCQSRIYWDGPLALCSDRPNKLERDQTCKLFDTQQFLSELQVFAHHGRPAPRFQVTLCFGEEFPDPQRQRKLITAHVEPLLARQLYYFAQQNTGHFLRGYELPEHVTTPDYHRSLRHSSIQE
notes: Endogenous transcription factor, immunoprecipitated with an anti-IRF4 antibody from Th17-polarized cell lysate; also called Endogenous IRF4
On to B1, for which the binding result in experiment [2] is given as “no binding”.

These data come from patent publication US20140121201A1, “REGULATORY NETWORK FOR Th17 SPECIFICATION AND USES THEREOF” (priority 2012, published 2014).
